# Measurements as given in ChEMBL document CHEMBL3232736, “Antiproliferative activities of halogenated thieno[3,2-d]pyrimidines” (Bioorg Med Chem, 2014).
# Active and inactive are the calls of the source. No cut-off for these calls is given here.
# Assays:
# [1] = system: L1210; assay: Cytotoxicity against mouse L1210 cells assessed as reduction in cell number after 48 hrs by cell counting assay; format: functional, cell-based; conditions: L1210, 48 h
# [2] = system: CCRF-CEM; assay: Cytotoxicity against human CCRF-CEM cells assessed as reduction in cell number after 72 hrs by cell counting assay; format: functional, cell-based
# [3] = system: HeLa; assay: Cytotoxicity against human HeLa cells assessed as reduction in cell number after 72 hrs by cell counting assay; format: functional, cell-based
# [4] = system: L1210; assay: Induction of apoptosis in mouse L1210 cells assessed as early apoptosis at 5.4 uM after 48 hrs by Annexin-V/7-AAD staining-based flow cytometric analysis (rvb = 3.36%); format: functional
# [5] = system: L1210; assay: Induction of apoptosis in mouse L1210 cells assessed as late apoptosis at 5.4 uM after 48 hrs by Annexin-V/7-AAD staining-based flow cytometric analysis (reference value: 4.46%); format: functional
# [6] = system: Escherichia coli; assay: Antibacterial activity against Escherichia coli ATCC 25922 assessed as growth inhibition at 100 uM after 16 to 20 hrs by microbroth dilution method; format: functional, organism-based
# [7] = system: Bacillus spizizenii; assay: Antibacterial activity against Bacillus subtilis ATCC 6633 assessed as growth inhibition at 100 uM after 16 to 20 hrs by microbroth dilution method; format: functional
# [8] = system: Staphylococcus aureus; assay: Antibacterial activity against methicillin-resistant Staphylococcus aureus subsp. aureus ATCC 43300 assessed as growth inhibition at 100 uM after 16 to 20 hrs by microbroth dilution method; format: functional, organism-based
# [9] = system: Enterococcus faecalis; assay: Antibacterial activity against vancomycin-resistant Enterococcus faecalis ATCC 51299 assessed as growth inhibition at 100 uM after 16 to 20 hrs by microbroth dilution method; format: functional, organism-based
# [10] = system: Pseudomonas aeruginosa; assay: Antibacterial activity against Pseudomonas aeruginosa ATCC 27853 assessed as growth inhibition at 100 uM after 16 to 20 hrs by microbroth dilution method; format: functional, organism-based
# [11] = system: Candida albicans; assay: Antifungal activity against Candida albicans ATCC 10231 assessed as growth inhibition after 16 to 20 hrs by microbroth dilution method; format: functional
# [12] = system: Cryptococcus neoformans; assay: Antifungal activity against Cryptococcus neoformans JEC20 assessed as growth inhibition after 48 hrs by microbroth dilution method; format: functional; conditions: JEC20, 48 h
# [13] = system: Cryptococcus neoformans; assay: Antifungal activity against Cryptococcus neoformans B4546 assessed as growth inhibition after 48 hrs by microbroth dilution method; format: functional; conditions: B4546, 48 h
# [14] = system: L1210; assay: Induction of apoptosis in mouse L1210 cells assessed as necrotic cell level at 5.4 uM after 48 hrs by Annexin-V/7-AAD staining-based flow cytometric analysis (reference value: 8.13%); format: functional
# [15] = system: L1210; assay: Cell cycle arrest in mouse L1210 cells at 5.4 uM after 24 to 48 hrs by propidium iodide staining-based flow cytometric analysis; format: functional
# [16] = system: L1210; assay: Induction of apoptosis in mouse L1210 cells assessed as viable cell level at 5.4 uM after 48 hrs by Annexin-V/7-AAD staining-based flow cytometric analysis (reference value: 83%); format: functional
# [17] = system: HEL; assay: Cytotoxicity against human HEL cells assessed as reduction in cell number by cell counting assay; format: functional
# [18] = system: Vero; assay: Cytotoxicity against African green monkey Vero cells assessed as reduction in cell number; format: cell-based; conditions: chlorocebus sabaeus
# [19] = system: HeLa; assay: Cytotoxicity against human HeLa cells assessed as reduction in cell number; format: functional
# [20] = system: L1210; assay: Cytotoxicity against mouse L1210 cells assessed as reduction in cell viability after 48 hrs by MTT assay; format: functional, cell-based; conditions: L1210, 48 h
# [21] = target: PI3-kinase p110-delta/p85-alpha (Homo sapiens) (UniProt P27986+O00329); assay: Inhibition of PIK3CD/PIK3R1 (unknown origin) at 5 uM; format: protein-complex assay
# [22] = target: Phosphatidylinositol 4,5-bisphosphate 3-kinase catalytic subunit gamma isoform (Homo sapiens) (UniProt P48736); assay: Inhibition of PIK3CG (unknown origin) at 5 uM
# [23] = system: L1210; assay: Cell cycle arrest in mouse L1210 cells at 0.32 uM after 24 to 48 hrs by propidium iodide staining-based flow cytometric analysis; format: functional
# [24] = system: L1210; assay: Induction of apoptosis in mouse L1210 cells assessed as early apoptotic cells level at 1 uM after 48 hrs by Annexin-V/7-AAD staining-based flow cytometric analysis (reference value: 2.59%); format: functional
# [25] = target: Hepatocyte growth factor receptor (Homo sapiens) (UniProt P08581); assay: Inhibition of MET (unknown origin) at 5 uM
# [26] = target: Non-receptor tyrosine-protein kinase TYK2 (Homo sapiens) (UniProt P29597); assay: Inhibition of TYK2 (unknown origin) at 5 uM
# Sequence of Non-receptor tyrosine-protein kinase TYK2 (Homo sapiens) (P29597 whole entry): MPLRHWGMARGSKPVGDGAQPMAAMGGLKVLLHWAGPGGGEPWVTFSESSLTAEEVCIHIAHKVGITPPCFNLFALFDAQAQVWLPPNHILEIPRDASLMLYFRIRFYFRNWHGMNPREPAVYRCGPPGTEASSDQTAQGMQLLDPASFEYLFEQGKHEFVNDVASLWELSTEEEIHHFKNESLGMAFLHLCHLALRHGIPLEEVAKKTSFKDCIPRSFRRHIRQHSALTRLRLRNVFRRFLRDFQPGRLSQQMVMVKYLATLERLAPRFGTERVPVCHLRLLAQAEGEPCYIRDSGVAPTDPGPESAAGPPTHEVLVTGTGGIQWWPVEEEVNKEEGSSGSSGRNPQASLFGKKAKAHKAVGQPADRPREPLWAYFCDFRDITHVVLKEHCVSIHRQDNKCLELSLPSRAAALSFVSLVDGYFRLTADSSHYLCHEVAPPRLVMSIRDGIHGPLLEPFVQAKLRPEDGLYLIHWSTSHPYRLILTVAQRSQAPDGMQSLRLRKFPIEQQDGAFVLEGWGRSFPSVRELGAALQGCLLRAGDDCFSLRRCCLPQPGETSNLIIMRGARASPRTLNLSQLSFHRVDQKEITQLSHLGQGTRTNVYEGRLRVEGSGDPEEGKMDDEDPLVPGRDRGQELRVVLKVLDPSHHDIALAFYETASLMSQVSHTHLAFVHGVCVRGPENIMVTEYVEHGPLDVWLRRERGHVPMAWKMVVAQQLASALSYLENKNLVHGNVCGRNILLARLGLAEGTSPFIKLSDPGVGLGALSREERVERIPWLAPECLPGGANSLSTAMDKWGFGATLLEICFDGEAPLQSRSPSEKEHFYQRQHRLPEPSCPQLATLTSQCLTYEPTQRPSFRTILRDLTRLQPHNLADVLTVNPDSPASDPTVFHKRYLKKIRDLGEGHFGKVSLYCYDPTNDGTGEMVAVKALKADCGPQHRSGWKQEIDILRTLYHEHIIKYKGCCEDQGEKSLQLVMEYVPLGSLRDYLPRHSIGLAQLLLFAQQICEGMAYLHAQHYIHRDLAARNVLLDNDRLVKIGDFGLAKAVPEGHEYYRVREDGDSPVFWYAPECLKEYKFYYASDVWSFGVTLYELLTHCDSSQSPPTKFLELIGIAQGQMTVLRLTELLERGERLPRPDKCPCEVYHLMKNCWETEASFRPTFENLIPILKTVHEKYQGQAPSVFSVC
# [27] = system: L1210; assay: Induction of apoptosis in mouse L1210 cells assessed as viable cells level at 1 uM after 48 hrs by Annexin-V/7-AAD staining-based flow cytometric analysis (reference value: 92.5%); format: functional
# [28] = system: L1210; assay: Induction of apoptosis in mouse L1210 cells assessed as necrotic cells level at 1 uM after 48 hrs by Annexin-V/7-AAD staining-based flow cytometric analysis (reference value: 3.68%); format: functional
# [29] = system: L1210; assay: Induction of apoptosis in mouse L1210 cells assessed as late cells level at 1 uM after 48 hrs by Annexin-V/7-AAD staining-based flow cytometric analysis (reference value: 1.25%); format: functional
# [30] = target: Phosphatidylinositol 4-phosphate 3-kinase C2 domain-containing subunit alpha (Homo sapiens) (UniProt O00443); assay: Inhibition of PIK3C2A (unknown origin) at 5 uM
# [31] = target: Phosphatidylinositol 4-phosphate 3-kinase C2 domain-containing subunit beta (Homo sapiens) (UniProt O00750); assay: Inhibition of PIK3C2B (unknown origin) at 5 uM
# [32] = target: Phosphatidylinositol 3-kinase catalytic subunit type 3 (Homo sapiens) (UniProt Q8NEB9); assay: Inhibition of PIK3C3 (unknown origin) at 5 uM
# Sequence of Phosphatidylinositol 3-kinase catalytic subunit type 3 (Homo sapiens) (Q8NEB9 whole entry): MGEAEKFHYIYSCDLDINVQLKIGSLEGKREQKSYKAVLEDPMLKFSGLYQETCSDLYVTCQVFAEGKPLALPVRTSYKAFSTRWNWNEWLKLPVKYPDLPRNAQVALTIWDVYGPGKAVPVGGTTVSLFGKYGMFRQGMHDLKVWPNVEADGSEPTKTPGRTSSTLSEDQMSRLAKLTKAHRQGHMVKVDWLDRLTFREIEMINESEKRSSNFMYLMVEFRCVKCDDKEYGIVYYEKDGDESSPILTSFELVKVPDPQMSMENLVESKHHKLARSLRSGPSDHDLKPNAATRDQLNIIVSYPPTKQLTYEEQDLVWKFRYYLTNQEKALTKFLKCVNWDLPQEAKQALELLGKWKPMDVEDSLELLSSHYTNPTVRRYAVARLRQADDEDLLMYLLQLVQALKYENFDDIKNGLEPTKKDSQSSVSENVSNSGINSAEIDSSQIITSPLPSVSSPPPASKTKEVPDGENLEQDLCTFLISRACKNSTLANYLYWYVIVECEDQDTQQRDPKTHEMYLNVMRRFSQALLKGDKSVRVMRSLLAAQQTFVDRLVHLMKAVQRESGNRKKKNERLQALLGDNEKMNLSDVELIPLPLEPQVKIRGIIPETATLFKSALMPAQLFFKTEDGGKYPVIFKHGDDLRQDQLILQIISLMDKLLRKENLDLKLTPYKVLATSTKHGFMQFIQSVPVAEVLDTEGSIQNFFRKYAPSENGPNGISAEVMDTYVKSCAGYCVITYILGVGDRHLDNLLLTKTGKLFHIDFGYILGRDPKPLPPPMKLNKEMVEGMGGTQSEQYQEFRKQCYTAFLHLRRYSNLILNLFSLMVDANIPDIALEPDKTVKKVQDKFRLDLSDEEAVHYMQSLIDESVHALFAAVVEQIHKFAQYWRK
# [33] = target: PI3-kinase p110-alpha/p85-alpha (Homo sapiens) (UniProt P27986+P42336); assay: Inhibition of PIK3CA/PIK3R1 (unknown origin) at 5 uM; format: protein-complex assay
# [34] = target: Serine/threonine-protein kinase mTOR (Homo sapiens) (UniProt P42345); assay: Inhibition of FRAP1 (unknown origin) at 5 uM
# [35] = target: Tyrosine-protein kinase JAK1 (Homo sapiens) (UniProt P23458); assay: Inhibition of JAK1 (unknown origin) at 5 uM
# [36] = target: Tyrosine-protein kinase JAK2 (Homo sapiens) (UniProt O60674); assay: Inhibition of JAK2 (unknown origin) at 5 uM
# Sequence of Tyrosine-protein kinase JAK2 (Homo sapiens) (O60674 whole entry, the tested form may be a part): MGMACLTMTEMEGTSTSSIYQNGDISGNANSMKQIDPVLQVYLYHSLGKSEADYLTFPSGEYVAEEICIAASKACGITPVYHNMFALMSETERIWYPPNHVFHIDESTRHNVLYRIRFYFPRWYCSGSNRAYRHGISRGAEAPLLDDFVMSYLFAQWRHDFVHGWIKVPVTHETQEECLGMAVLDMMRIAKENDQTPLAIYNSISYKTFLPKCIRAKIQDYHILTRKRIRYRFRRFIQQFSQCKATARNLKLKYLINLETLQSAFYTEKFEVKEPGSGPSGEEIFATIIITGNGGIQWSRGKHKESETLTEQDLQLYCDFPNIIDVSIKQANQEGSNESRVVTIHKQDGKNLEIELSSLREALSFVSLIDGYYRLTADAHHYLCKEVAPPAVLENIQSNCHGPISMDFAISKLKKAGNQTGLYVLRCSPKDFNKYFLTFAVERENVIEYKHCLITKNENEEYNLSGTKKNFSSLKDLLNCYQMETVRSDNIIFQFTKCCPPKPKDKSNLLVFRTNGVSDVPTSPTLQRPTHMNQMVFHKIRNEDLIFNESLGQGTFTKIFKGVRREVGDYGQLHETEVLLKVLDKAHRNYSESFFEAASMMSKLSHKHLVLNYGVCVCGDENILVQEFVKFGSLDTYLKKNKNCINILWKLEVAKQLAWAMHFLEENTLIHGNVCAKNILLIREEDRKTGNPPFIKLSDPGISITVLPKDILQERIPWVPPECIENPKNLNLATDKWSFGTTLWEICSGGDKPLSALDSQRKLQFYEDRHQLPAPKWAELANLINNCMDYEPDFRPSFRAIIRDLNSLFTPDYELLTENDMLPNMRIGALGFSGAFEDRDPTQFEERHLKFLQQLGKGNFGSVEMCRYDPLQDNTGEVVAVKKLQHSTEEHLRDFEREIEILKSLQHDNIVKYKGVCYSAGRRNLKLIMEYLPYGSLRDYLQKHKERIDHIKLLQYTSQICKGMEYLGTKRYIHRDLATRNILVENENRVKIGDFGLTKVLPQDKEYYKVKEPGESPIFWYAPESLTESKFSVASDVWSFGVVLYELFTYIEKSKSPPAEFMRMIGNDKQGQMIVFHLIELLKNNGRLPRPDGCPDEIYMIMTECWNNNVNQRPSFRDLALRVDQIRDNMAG
# [37] = target: Tyrosine-protein kinase JAK2 (Homo sapiens) (UniProt O60674); assay: Inhibition of JAK2 JH1/JH2 domain (unknown origin) at 5 uM
# [38] = system: Tyrosine-protein kinase JAK2 (Homo sapiens), O60674 [V617F]; assay: Inhibition of JAK2 JH1/JH2 domain V617F mutant (unknown origin) at 5 uM
# Sequence of Tyrosine-protein kinase JAK2 (Homo sapiens), O60674 [V617F] (O60674 whole entry V617F, the tested form may be a part): as the sequence (O60674 whole entry, the tested form may be a part) above, with V617F counted along it
# [39] = target: Tyrosine-protein kinase JAK3 (Homo sapiens) (UniProt P52333); assay: Inhibition of JAK3 (unknown origin) at 5 uM
# Sequence of Tyrosine-protein kinase JAK3 (Homo sapiens) (P52333 whole entry): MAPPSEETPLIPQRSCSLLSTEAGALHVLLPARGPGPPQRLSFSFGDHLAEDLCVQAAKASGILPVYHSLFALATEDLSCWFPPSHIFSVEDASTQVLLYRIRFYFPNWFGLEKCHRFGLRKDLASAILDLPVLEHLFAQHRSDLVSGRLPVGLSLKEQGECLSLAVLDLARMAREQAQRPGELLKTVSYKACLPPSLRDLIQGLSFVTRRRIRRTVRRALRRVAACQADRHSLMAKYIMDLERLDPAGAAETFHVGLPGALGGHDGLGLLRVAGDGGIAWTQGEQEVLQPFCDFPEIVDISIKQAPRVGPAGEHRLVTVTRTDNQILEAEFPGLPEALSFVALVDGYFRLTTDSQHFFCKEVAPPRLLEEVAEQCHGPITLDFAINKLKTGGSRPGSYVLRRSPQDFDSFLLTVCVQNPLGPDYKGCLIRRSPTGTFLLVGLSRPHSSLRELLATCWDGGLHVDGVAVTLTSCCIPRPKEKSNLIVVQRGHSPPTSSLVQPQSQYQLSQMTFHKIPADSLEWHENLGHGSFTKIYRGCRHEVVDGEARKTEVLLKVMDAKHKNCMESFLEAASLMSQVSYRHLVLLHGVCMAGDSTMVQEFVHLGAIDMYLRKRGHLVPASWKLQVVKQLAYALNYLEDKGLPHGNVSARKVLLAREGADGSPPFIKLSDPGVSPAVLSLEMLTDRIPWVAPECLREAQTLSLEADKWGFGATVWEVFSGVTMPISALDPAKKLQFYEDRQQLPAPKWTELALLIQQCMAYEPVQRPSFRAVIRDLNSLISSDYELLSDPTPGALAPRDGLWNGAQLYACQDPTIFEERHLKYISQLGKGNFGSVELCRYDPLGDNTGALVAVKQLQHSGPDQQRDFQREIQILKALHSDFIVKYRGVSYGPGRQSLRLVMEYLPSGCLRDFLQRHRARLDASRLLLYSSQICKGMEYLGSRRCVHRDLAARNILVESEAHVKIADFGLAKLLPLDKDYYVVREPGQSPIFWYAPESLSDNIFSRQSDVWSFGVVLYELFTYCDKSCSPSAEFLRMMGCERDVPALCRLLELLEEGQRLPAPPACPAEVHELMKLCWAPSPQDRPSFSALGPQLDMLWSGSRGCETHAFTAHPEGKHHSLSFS
# [40] = target: Leukocyte tyrosine kinase receptor (Homo sapiens) (UniProt P29376); assay: Inhibition of LTK (unknown origin) at 5 uM
# [41] = target: Serine/threonine-protein kinase D3 (Homo sapiens) (UniProt O94806); assay: Inhibition of PRKCN (unknown origin) at 5 uM
# [42] = target: Serine/threonine-protein kinase D1 (Homo sapiens) (UniProt Q15139); assay: Inhibition of PRKD1 (unknown origin) at 5 uM
# [43] = target: Serine/threonine-protein kinase D2 (Homo sapiens) (UniProt Q9BZL6); assay: Inhibition of PRKD2 (unknown origin) at 5 uM
# [44] = target: Proto-oncogene tyrosine-protein kinase Src (Homo sapiens) (UniProt P12931); assay: Inhibition of SRC (unknown origin) at 5 uM
# Sequence of Proto-oncogene tyrosine-protein kinase Src (Homo sapiens) (P12931 2-536 limits assumed): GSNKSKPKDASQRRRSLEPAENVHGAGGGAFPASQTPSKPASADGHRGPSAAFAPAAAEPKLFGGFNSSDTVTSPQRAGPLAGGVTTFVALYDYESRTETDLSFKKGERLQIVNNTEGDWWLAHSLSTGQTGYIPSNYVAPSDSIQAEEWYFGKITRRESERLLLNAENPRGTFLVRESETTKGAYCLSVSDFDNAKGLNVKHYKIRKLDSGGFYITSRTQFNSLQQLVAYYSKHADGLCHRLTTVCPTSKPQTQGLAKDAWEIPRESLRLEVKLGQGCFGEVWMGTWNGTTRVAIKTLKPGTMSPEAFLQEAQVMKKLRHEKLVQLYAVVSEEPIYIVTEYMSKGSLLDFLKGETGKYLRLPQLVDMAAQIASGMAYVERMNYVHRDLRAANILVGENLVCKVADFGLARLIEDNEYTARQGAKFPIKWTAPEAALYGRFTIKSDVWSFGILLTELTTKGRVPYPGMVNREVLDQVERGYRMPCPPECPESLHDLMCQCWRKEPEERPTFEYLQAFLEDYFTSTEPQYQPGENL
# [45] = target: Proto-oncogene tyrosine-protein kinase Src (Homo sapiens) (UniProt P12931); assay: Inhibition of SRC N1 (unknown origin) at 5 uM
# [46] = system: Candida albicans; assay: Antifungal activity against Candida albicans ATCC 10231 assessed as growth inhibition at 100 uM after 16 to 20 hrs by microbroth dilution method; format: functional
# [47] = system: Cryptococcus neoformans; assay: Antifungal activity against Cryptococcus neoformans ATCC 66031 assessed as growth inhibition at 100 uM after 48 hrs by microbroth dilution method; format: functional
# [48] = system: Cryptococcus neoformans; assay: Antifungal activity against Cryptococcus neoformans JEC20 assessed as growth inhibition at 100 uM after 48 hrs by microbroth dilution method; format: functional
# [49] = system: Cryptococcus neoformans; assay: Antifungal activity against Cryptococcus neoformans VANC-R265 assessed as growth inhibition at 100 uM after 48 hrs by microbroth dilution method; format: functional
# [50] = system: Cryptococcus neoformans; assay: Antifungal activity against Cryptococcus neoformans B4546 assessed as growth inhibition at 100 uM after 48 hrs by microbroth dilution method; format: functional
smiles,measurement,setting,value
Clc1nc(-n2cncn2)c2sccc2n1,IC50,[1],> 250 µM
same,IC50,[2],> 250 µM
same,IC50,[3],> 250 µM
Clc1nc(Cl)c2scc(Br)c2n1,Activity,[4],33.3%
same,Activity,[5],21.8%
same,inhibition,[6],inactive
same,inhibition,[7],inactive
same,inhibition,[8],inactive
same,inhibition,[9],inactive
same,inhibition,[10],inactive
same,MIC95,[11],10.7 µM
same,MIC95,[12],5.8 µM
same,MIC95,[13],7 µM
same,Activity,[14],1.84%
same,Activity,[15],inactive
same,Activity,[16],43.1%
same,IC50,[1],5.4 µM
same,IC50,[2],14 µM
same,IC50,[3],4.3 µM
same,MIC99,[17],20 µM
same,MIC99,[18],20 µM
same,MIC99,[19],20 µM
same,IC50,[20],5.4 µM
COc1nc(OC)c2scc([C@H]3CC(=O)[C@@H](CO)O3)c2n1,IC50,[1],> 250 µM
same,IC50,[2],> 250 µM
same,IC50,[3],> 250 µM
Clc1nc(Cl)c2sccc2n1,inhibition,[21],< 40%
same,inhibition,[22],< 40%
same,Activity,[23],inactive
same,inhibition,[6],inactive
same,inhibition at 100 µM,[7],43%
same,inhibition,[8],inactive
same,inhibition,[9],inactive
same,inhibition,[10],inactive
same,MIC95,[11],23.4 µM
same,MIC95,[12],16.6 µM
same,MIC95,[13],34.6 µM
same,Activity,[24],56%
same,inhibition,[25],< 40%
same,inhibition,[26],< 40%
same,Activity,[27],37.9%
same,Activity,[28],1.29%
same,Activity,[29],4.72%
same,inhibition,[30],< 40%
same,inhibition,[31],< 40%
same,inhibition,[32],< 40%
same,inhibition,[33],< 40%
same,IC50,[1],0.67 µM
same,IC50,[2],5.2 µM
same,IC50,[3],3.9 µM
same,MIC99,[17],100 µM
same,MIC99,[18],20 µM
same,MIC99,[19],4 µM
same,IC50,[20],0.32 µM
same,inhibition,[34],< 40%
same,inhibition,[35],< 40%
same,inhibition,[36],< 40%
same,inhibition,[37],< 40%
same,inhibition,[38],< 40%
same,inhibition,[39],< 40%
same,inhibition,[40],< 40%
same,inhibition,[41],< 40%
same,inhibition,[42],< 40%
same,inhibition,[43],< 40%
same,inhibition,[44],< 40%
same,inhibition,[45],< 40%
COc1nc(OC)c2scc([C@H]3C[C@H](O)[C@@H](CO)O3)c2n1,IC50,[1],> 250 µM
same,IC50,[2],> 250 µM
same,IC50,[3],> 250 µM
Clc1ncc2sccc2n1,inhibition,[6],inactive
same,inhibition,[7],inactive
same,inhibition,[8],inactive
same,inhibition,[46],inactive
same,inhibition,[47],inactive
same,inhibition,[48],inactive
same,inhibition,[49],inactive
same,inhibition,[50],inactive
same,IC50,[1],> 250 µM
same,IC50,[2],> 250 µM
same,IC50,[3],> 250 µM
COc1nc(OC)c2scc([C@H]3C[C@H](OC(C)=O)[C@@H](COC(C)=O)O3)c2n1,IC50,[1],> 250 µM
same,IC50,[2],> 250 µM
same,IC50,[3],> 250 µM
O=c1[nH]c(=O)c2scc(Br)c2[nH]1,IC50,[1],> 250 µM
same,IC50,[2],> 250 µM
same,IC50,[3],> 250 µM
